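All cell lines were grown in 96-well plates and treated with compound for 48 hours. At the GI50, growth is halved. TGI: total growth inhibition.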
Legend:
Experiment in all cases: inhibition of tumour cell growth, NCI panel, 48 h
MDA-MB-435 = tested on: MDA-MB-435
IGROV1 ovarian = tested on: IGROV1 ovarian
TK-10 renal = tested on: TK-10 renal
OVCAR-8 ovarian = tested on: OVCAR-8 ovarian
HCT-116 colon = tested on: HCT-116 colon
HCC-2998 colon = tested on: HCC-2998 colon
HT29 colon = tested on: HT29 colon
NCI-H226 lung = tested on: NCI-H226 lung
UO-31 renal = tested on: UO-31 renal
RPMI-8226 leukemia = tested on: RPMI-8226 leukemia

Compound | TGI (MDA-MB-435) | TGI (IGROV1 ovarian) | TGI (TK-10 renal) | TGI (OVCAR-8 ovarian) | TGI (HCT-116 colon) | TGI (HCC-2998 colon) | TGI (HT29 colon) | TGI (NCI-H226 lung) | TGI (UO-31 renal) | TGI (RPMI-8226 leukemia) | GI50 (UO-31 renal) | GI50 (IGROV1 ovarian) | GI50 (OVCAR-8 ovarian) | GI50 (HCT-116 colon) | GI50 (RPMI-8226 leukemia) | GI50 (HT29 colon) | GI50 (NCI-H226 lung)
Cc1ccc(-c2c(C#N)c(O)n(NS(=O)(=O)c3ccccc3)c(=O)c2C#N)cc1 | > 100 µM | > 100 µM | > 100 µM | > 100 µM | > 100 µM | > 100 µM | > 100 µM | > 100 µM |  |  |  |  |  |  |  |  | 
COc1c(-c2ccc3c(c2)OCO3)oc2cc3c(c(OC)c2c1=O)OCO3 | 36.2 µM | 55.1 µM | 80.4 µM | 42.4 µM | 39.3 µM | 87.4 µM | > 100 µM | 42.5 µM | 71 µM |  |  |  |  |  |  |  | 
CN(C)/C=C/c1ccnc2c1C(=O)c1ccccc1C2=O |  | 35.2 µM | > 100 µM | 59.1 µM | 20.9 µM | 22.6 µM | 37.9 µM | > 52.7 µM | 43.6 µM | 39.3 µM |  |  |  |  |  |  | 
N#Cc1ccc(/C=C2\Cc3ccccc3C2=O)cc1 | > 100 µM |  | > 100 µM | > 100 µM | > 100 µM | > 100 µM | > 100 µM | > 100 µM | > 100 µM | > 100 µM |  |  |  |  |  |  | 
CC(C)(C)C(=O)Cc1cc2c(cc1C(=O)O)S(=O)(=O)NC(C(C)(C)C)=C2 |  |  | > 100 µM | > 100 µM | > 100 µM |  | > 100 µM | > 100 µM | > 100 µM | > 100 µM |  |  |  |  |  |  | 
COC[C@H](Cc1ccccc1)N=Cc1ccccc1 | > 100 µM | > 100 µM | > 100 µM | > 100 µM | > 100 µM | > 100 µM | > 100 µM |  | > 100 µM | > 100 µM |  |  |  |  |  |  | 
CC(C)(Oc1ccc(C2C[C@H]2Cl)cc1)C(=O)O (stereo partly specified) | > 100 µM | > 100 µM | > 100 µM |  | > 100 µM |  |  |  |  | > 100 µM |  |  |  |  |  |  | 
CC(=S)NC1C(Oc2ccc3c(C)cc(=O)oc3c2)OC(CO)C(O)C1O (stereo unspecified) | > 100 µM | > 100 µM | > 100 µM | > 100 µM | > 100 µM |  | > 100 µM | > 100 µM | > 100 µM | > 100 µM |  |  |  |  |  |  | 
COc1ccc2[nH]c3c(C)c4ccnc(NCCCN(C)CCCNC(=O)NCCCN(C)CCCNc5nccc6c(C)c7[nH]c8ccc(OC)cc8c7c(C)c56)c4c(C)c3c2c1 | 1.24 µM | 2.05 µM | > 50 µM |  | 5.48 µM | 1.13 µM | 1.19 µM |  | > 16.9 µM | > 14.5 µM |  |  |  |  |  |  | 
CCO/C=N/C1=C(C#N)C(c2ccc(OC)c(OC)c2)c2c(-c3ccccc3)nn(-c3ccccc3)c2O1 (stereo unspecified) | 33.1 µM | 14.8 µM |  | 47.6 µM | 28.3 µM | > 100 µM | 52.5 µM | 32.9 µM | 38.5 µM | > 100 µM |  |  |  |  |  |  | 
C[C@H]1C(=O)C2=C[C@H]1CCC(=O)[C@]1(C)CCCC(C)(C)[C@H]1C[C@H]2O | > 100 µM | > 100 µM | 28.7 µM | 35 µM | > 100 µM |  | 28.6 µM | 84.3 µM | 75.1 µM | 34.2 µM |  |  |  |  |  |  | 
O=C(CSCC(=O)N/N=C\c1cc(Br)cc(Br)c1O)N/N=C\c1cc(Br)cc(Br)c1O | > 100 µM | 66.2 µM | 71.8 µM | 68 µM | > 100 µM |  | > 100 µM | 58.2 µM | 49.6 µM |  |  |  |  |  |  |  | 
O=c1[nH]/c(=C/c2ccc(OCc3ccccc3)cn2)c(=O)[nH]/c1=C/c1cccnc1 | 0.261 µM |  | > 100 µM | > 100 µM | > 100 µM | 3.16 µM | > 100 µM |  |  |  |  |  |  |  |  |  | 
c1ccc(C2(c3cc4ccccc4[nH]3)OCCO2)cc1 | > 100 µM | > 100 µM | > 100 µM | > 100 µM | > 100 µM |  | > 100 µM | > 100 µM | > 100 µM | > 100 µM |  |  |  |  |  |  | 
COC[C@@H](N=Cc1ccc(OC)cc1)C(C)C | > 100 µM | > 100 µM | > 100 µM | > 100 µM | > 100 µM |  | > 100 µM |  | > 100 µM | > 100 µM |  |  |  |  |  |  | 
COc1ccc(C2Oc3cc(OC)c(O)cc3[C@@H]2C)cc1 (stereo partly specified) |  |  | > 100 µM | 56.6 µM | 25.9 µM | > 100 µM | > 100 µM | 92.6 µM | 79.3 µM | 58.2 µM |  |  |  |  |  |  | 
CN1C(=N\S(=O)(=O)c2ccc(Cl)cc2)/C(=N/N=P(c2ccccc2)(c2ccccc2)c2ccccc2)c2ccccc21 |  | > 100 µM | > 100 µM | > 100 µM | > 100 µM | > 100 µM | > 100 µM | > 100 µM | > 100 µM |  |  |  |  |  |  |  | 
CC1=CC(=O)C[C@]2(C)[C@@H](O)CC(C(C)CO)C[C@@H]12 (stereo partly specified) | > 100 µM | > 100 µM | > 100 µM | > 100 µM | > 100 µM | > 100 µM | > 100 µM | > 100 µM | > 100 µM |  |  |  |  |  |  |  | 
CCCCCCCCCCCCCCCCCc1nc(C#N)c(N)o1 | > 100 µM | 36.4 µM | > 100 µM | 51.8 µM | > 100 µM |  | > 100 µM |  |  | 52 µM |  |  |  |  |  |  | 
OB1OCc2ccccc21 | > 100 µM | > 100 µM | > 100 µM | > 100 µM | > 100 µM |  | > 100 µM | > 100 µM | > 100 µM | 45.9 µM |  |  |  |  |  |  | 
Cc1ccc(-n2cc(-c3ccc(Cl)cc3)c3c(NNC(=S)NCc4ccccc4)ncnc32)cc1 | 76.1 µM | 54.4 µM | 68.2 µM | 69.3 µM | 16.8 µM |  | 50.7 µM | > 100 µM | 24.2 µM | > 100 µM |  |  |  |  |  |  | 
COCN1C(=O)[C@@H]2C[C@@H](OC/C=C/CBr)CN2C(=O)c2ccccc21 | 50.9 µM | 26.5 µM | 49.7 µM | 34 µM | 42.7 µM |  | 82.1 µM | 29.9 µM | 40.5 µM |  |  |  |  |  |  |  | 
O=C(CCc1nnc2s/c(=C\c3ccc(Cl)cc3Cl)c(=O)n12)Nc1cc(Cl)c(Cl)cc1Cl |  | > 100 µM | > 100 µM | > 100 µM | > 100 µM | > 100 µM | > 100 µM | > 100 µM | > 100 µM | > 100 µM | > 100 µM | > 100 µM | > 100 µM | > 100 µM | > 100 µM | > 100 µM | > 100 µM

Reference: PubChem BioAssay (NCI)
